{"source": "ChEMBL document CHEMBL3286227", "about": "“Guanidinium-based derivatives: searching for new kinase inhibitors” (Eur J Med Chem, 2014)", "key": {"[1]": {"tested_on": "HL-60", "assay": "Cell cycle arrest in human HL60 cells assessed as accumulation at G0/G1 phase at 1 uM after 72 hrs by propidium iodide staining-based flow cytometry (reference value: 65.7 +/- 0.1%)", "type": "functional"}, "[2]": {"tested_on": "HL-60", "assay": "Cell cycle arrest in human HL60 cells assessed as accumulation at G0/G1 phase at 10 uM after 72 hrs by propidium iodide staining-based flow cytometry (reference value: 65.7 +/- 0.1%)", "type": "functional"}, "[3]": {"tested_on": "HL-60", "assay": "Cell cycle arrest in human HL60 cells assessed as accumulation at S phase at 1 uM after 48 hrs by propidium iodide staining-based flow cytometry (reference value: 21.5 +/- 1.0%)", "type": "functional"}, "[4]": {"tested_on": "HL-60", "assay": "Cell cycle arrest in human HL60 cells assessed as accumulation at S phase at 10 uM after 48 hrs by propidium iodide staining-based flow cytometry (reference value: 21.5 +/- 1.0%)", "type": "functional"}, "[5]": {"tested_on": "HL-60", "assay": "Cell cycle arrest in human HL60 cells assessed as accumulation at S phase at 25 uM after 48 hrs by propidium iodide staining-based flow cytometry (reference value: 21.5 +/- 1.0%)", "type": "functional"}, "[6]": {"tested_on": "HL-60", "assay": "Cell cycle arrest in human HL60 cells assessed as accumulation at S phase at 50 uM after 48 hrs by propidium iodide staining-based flow cytometry (reference value: 21.5 +/- 1.0%)", "type": "functional"}, "[7]": {"tested_on": "HL-60", "assay": "Cell cycle arrest in human HL60 cells assessed as accumulation at S phase at 1 uM after 72 hrs by propidium iodide staining-based flow cytometry (reference value: 16.4 +/- 0.8%)", "type": "functional"}, "[8]": {"tested_on": "HL-60", "assay": "Cell cycle arrest in human HL60 cells assessed as accumulation at S phase at 10 uM after 72 hrs by propidium iodide staining-based flow cytometry (reference value: 16.4 +/- 0.8%)", "type": "functional"}, "[9]": {"tested_on": "HL-60", "assay": "Cell cycle arrest in human HL60 cells assessed as accumulation at S phase at 50 uM after 72 hrs by propidium iodide staining-based flow cytometry (reference value: 16.4 +/- 0.8%)", "type": "functional"}, "[10]": {"tested_on": "HL-60", "assay": "Cell cycle arrest in human HL60 cells assessed as accumulation at G2/M phase at 1 uM after 48 hrs by propidium iodide staining-based flow cytometry (reference value: 18.4 +/- 1.3%)", "type": "functional"}, "[11]": {"tested_on": "HL-60", "assay": "Cell cycle arrest in human HL60 cells assessed as accumulation at G2/M phase at 10 uM after 48 hrs by propidium iodide staining-based flow cytometry (reference value: 18.4 +/- 1.3%)", "type": "functional"}, "[12]": {"tested_on": "HL-60", "assay": "Cell cycle arrest in human HL60 cells assessed as accumulation at G2/M phase at 25 uM after 48 hrs by propidium iodide staining-based flow cytometry (reference value: 18.4 +/- 1.3%)", "type": "functional"}, "[13]": {"tested_on": "HL-60", "assay": "Cell cycle arrest in human HL60 cells assessed as accumulation at G2/M phase at 50 uM after 48 hrs by propidium iodide staining-based flow cytometry (reference value: 18.4 +/- 1.3%)", "type": "functional"}, "[14]": {"tested_on": "HL-60", "assay": "Cell cycle arrest in human HL60 cells assessed as accumulation at G2/M phase at 1 uM after 72 hrs by propidium iodide staining-based flow cytometry (reference value: 14.8 +/- 0.7%)", "type": "functional"}, "[15]": {"tested_on": "HL-60", "assay": "Cell cycle arrest in human HL60 cells assessed as accumulation at G2/M phase at 10 uM after 72 hrs by propidium iodide staining-based flow cytometry (reference value: 14.8 +/- 0.7%)", "type": "functional"}, "[16]": {"tested_on": "HL-60", "assay": "Cell cycle arrest in human HL60 cells assessed as accumulation at G2/M phase at 50 uM after 72 hrs by propidium iodide staining-based flow cytometry (reference value: 14.8 +/- 0.7%)", "type": "functional"}, "[17]": {"tested_on": "HL-60", "assay": "Cell cycle arrest in human HL60 cells assessed as accumulation at Gn phase at 1 uM after 48 hrs by propidium iodide staining-based flow cytometry (reference value: 2.49 +/- 0.4%)", "type": "functional"}, "[18]": {"tested_on": "HL-60", "assay": "Cell cycle arrest in human HL60 cells assessed as accumulation at Gn phase at 25 uM after 48 hrs by propidium iodide staining-based flow cytometry (reference value: 2.49 +/- 0.4%)", "type": "functional"}, "[19]": {"tested_on": "HL-60", "assay": "Cell cycle arrest in human HL60 cells assessed as accumulation at Gn phase at 50 uM after 48 hrs by propidium iodide staining-based flow cytometry (reference value: 2.49 +/- 0.4%)", "type": "functional"}, "[20]": {"tested_on": "HL-60", "assay": "Cell cycle arrest in human HL60 cells assessed as accumulation at Gn phase at 1 uM after 72 hrs by propidium iodide staining-based flow cytometry (reference value: 2.49 +/- 0.3%)", "type": "functional"}, "[21]": {"tested_on": "HL-60", "assay": "Cell cycle arrest in human HL60 cells assessed as accumulation at Gn phase at 10 uM after 72 hrs by propidium iodide staining-based flow cytometry (reference value: 2.49 +/- 0.3%)", "type": "functional"}, "[22]": {"tested_on": "HL-60", "assay": "Cell cycle arrest in human HL60 cells assessed as accumulation at Gn phase at 25 uM after 72 hrs by propidium iodide staining-based flow cytometry (reference value: 2.49 +/- 0.3%)", "type": "functional"}, "[23]": {"target": "Casein kinase I isoform delta (Homo sapiens, UniProt P48730)", "sequence (P48730 whole entry, canonical isoform)": "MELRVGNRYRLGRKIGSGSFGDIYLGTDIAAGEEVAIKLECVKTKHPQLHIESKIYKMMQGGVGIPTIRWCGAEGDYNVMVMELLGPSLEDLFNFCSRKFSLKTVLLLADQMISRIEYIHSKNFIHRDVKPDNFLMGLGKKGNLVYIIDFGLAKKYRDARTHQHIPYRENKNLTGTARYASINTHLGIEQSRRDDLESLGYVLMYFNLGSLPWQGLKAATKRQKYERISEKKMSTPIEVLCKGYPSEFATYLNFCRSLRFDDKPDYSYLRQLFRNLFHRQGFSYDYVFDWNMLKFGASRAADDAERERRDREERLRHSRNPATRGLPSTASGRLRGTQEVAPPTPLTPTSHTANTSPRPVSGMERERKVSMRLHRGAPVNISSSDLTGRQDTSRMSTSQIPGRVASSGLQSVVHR", "assay": "Inhibition of human recombinant casein kinase-1 delta using casein as substrate after 60 mins by kinase-glo luminescence assay"}, "[24]": {"tested_on": "HL-60", "assay": "Cytotoxicity against human HL60 cells after 72 hrs by Alamar Blue assay", "type": "functional, cell-based", "details": "HL-60, 72 h"}, "[25]": {"tested_on": "HL-60", "assay": "Induction of apoptosis in human HL60 cells assessed as cell shrinkage at 50 uM after 72 hrs by microscopy relative to vehicle-treated control", "type": "functional, cell-based"}, "[26]": {"tested_on": "HL-60", "assay": "Induction of apoptosis in human HL60 cells assessed as nuclear fragmentation at 50 uM after 72 hrs by microscopy relative to vehicle-treated control", "type": "functional, cell-based"}, "[27]": {"tested_on": "HL-60", "assay": "Induction of apoptosis in human HL60 cells assessed as cell membrane blebbing at 50 uM after 72 hrs by microscopy relative to vehicle-treated control", "type": "functional, cell-based"}, "[28]": {"tested_on": "HL-60", "assay": "Cell cycle arrest in human HL60 cells assessed as accumulation at pre-G1 phase at 10 uM after 48 hrs by propidium iodide staining-based flow cytometry (reference value: 0.17%)", "type": "functional"}, "[29]": {"tested_on": "HL-60", "assay": "Cell cycle arrest in human HL60 cells assessed as accumulation at pre-G1 phase at 25 uM after 48 hrs by propidium iodide staining-based flow cytometry (reference value: 0.17%)", "type": "functional"}, "[30]": {"tested_on": "HL-60", "assay": "Cell cycle arrest in human HL60 cells assessed as accumulation at pre-G1 phase at 50 uM after 48 hrs by propidium iodide staining-based flow cytometry (reference value: 0.17%)", "type": "functional"}, "[31]": {"tested_on": "HL-60", "assay": "Cell cycle arrest in human HL60 cells assessed as accumulation at pre-G1 phase at 1 uM after 72 hrs by propidium iodide staining-based flow cytometry (reference value: 0.14%)", "type": "functional"}, "[32]": {"tested_on": "HL-60", "assay": "Cell cycle arrest in human HL60 cells assessed as accumulation at pre-G1 phase at 50 uM after 72 hrs by propidium iodide staining-based flow cytometry (reference value: 0.14%)", "type": "functional"}, "[33]": {"tested_on": "HL-60", "assay": "Cell cycle arrest in human HL60 cells assessed as accumulation at G0/G1 phase at 1 uM after 48 hrs by propidium iodide staining-based flow cytometry (reference value: 57.0 +/- 1.0%)", "type": "functional"}, "[34]": {"tested_on": "HL-60", "assay": "Cell cycle arrest in human HL60 cells assessed as accumulation at G0/G1 phase at 10 uM after 48 hrs by propidium iodide staining-based flow cytometry (reference value: 57.0 +/- 1.0%)", "type": "functional"}, "[35]": {"tested_on": "HL-60", "assay": "Cell cycle arrest in human HL60 cells assessed as accumulation at G0/G1 phase at 25 uM after 48 hrs by propidium iodide staining-based flow cytometry (reference value: 57.0 +/- 1.0%)", "type": "functional"}}, "note": "Activity calls are given as the source filed them. The calls are words filed in the database; no cut-off is given here."}
{"compound": "Cl.N=C(N)Nc1ccc(Oc2cccc(NC(=N)Nc3ccc(Cl)c(C(F)(F)F)c3)c2)cc1", "values": [{"measurement": "Activity", "setting": "[1]", "value": 61.7, "unit": "%"}, {"measurement": "Activity", "setting": "[2]", "value": 61.3, "unit": "%"}, {"measurement": "Activity", "setting": "[3]", "value": 20.6, "unit": "%"}, {"measurement": "Activity", "setting": "[4]", "value": 14.7, "unit": "%"}, {"measurement": "Activity", "setting": "[5]", "value": 7.15, "unit": "%"}, {"measurement": "Activity", "setting": "[6]", "value": 15.7, "unit": "%"}, {"measurement": "Activity", "setting": "[7]", "value": 17.1, "unit": "%"}, {"measurement": "Activity", "setting": "[8]", "value": 14.1, "unit": "%"}, {"measurement": "Activity", "setting": "[9]", "value": 14.4, "unit": "%"}, {"measurement": "Activity", "setting": "[10]", "value": 20.4, "unit": "%"}, {"measurement": "Activity", "setting": "[11]", "value": 14.6, "unit": "%"}, {"measurement": "Activity", "setting": "[12]", "value": 20.2, "unit": "%"}, {"measurement": "Activity", "setting": "[13]", "value": 18.6, "unit": "%"}, {"measurement": "Activity", "setting": "[14]", "value": 16.7, "unit": "%"}, {"measurement": "Activity", "setting": "[15]", "value": 18.9, "unit": "%"}, {"measurement": "Activity", "setting": "[16]", "value": 13.6, "unit": "%"}, {"measurement": "Activity", "setting": "[17]", "value": 2.17, "unit": "%"}, {"measurement": "Activity", "setting": "[18]", "value": 2.17, "unit": "%"}, {"measurement": "Activity", "setting": "[19]", "value": 3.14, "unit": "%"}, {"measurement": "Activity", "setting": "[20]", "value": 3.23, "unit": "%"}, {"measurement": "Activity", "setting": "[21]", "value": 3.36, "unit": "%"}, {"measurement": "Activity", "setting": "[22]", "value": 2.56, "unit": "%"}, {"measurement": "IC50", "setting": "[23]", "value": "> 100", "unit": "µM"}, {"measurement": "IC50", "setting": "[24]", "value": 9.72, "unit": "µM"}, {"measurement": "Activity", "setting": "[25]", "value": "Active"}, {"measurement": "Activity", "setting": "[26]", "value": "Active"}, {"measurement": "Activity", "setting": "[27]", "value": "Active"}, {"measurement": "Activity", "setting": "[28]", "value": 0.32, "unit": "%"}, {"measurement": "Activity", "setting": "[29]", "value": 1.75, "unit": "%"}, {"measurement": "Activity", "setting": "[30]", "value": 12.5, "unit": "%"}, {"measurement": "Activity", "setting": "[31]", "value": 0.13, "unit": "%"}, {"measurement": "Activity", "setting": "[32]", "value": 25.1, "unit": "%"}, {"measurement": "Activity", "setting": "[33]", "value": 56.6, "unit": "%"}, {"measurement": "Activity", "setting": "[34]", "value": 68.9, "unit": "%"}, {"measurement": "Activity", "setting": "[35]", "value": 69.2, "unit": "%"}]}
